Measured values as given in US8791132B2, “Compounds and methods for treatment of hypertension” (Medivation Technologies, Inc., priority 2011, dated 2014).
Values joined by “and” are separate entries in the source; they are usually repeats but may differ in a detail not shown here. Identical values can stand only once. Like-named read-outs stand apart in the source and are kept apart here.

Assays:
[1] = biological target: T1, human recombinant adrenergic α2A receptor (Homo sapiens, UniProt P08913); assay: Radioligand binding, adrenergic α2A ([3H]MK-912); conditions: [3H]MK-912
T1 construct: expressed in transfected cells; host or cells: insect Sf9 cells
T1 sequence (P08913 1-465): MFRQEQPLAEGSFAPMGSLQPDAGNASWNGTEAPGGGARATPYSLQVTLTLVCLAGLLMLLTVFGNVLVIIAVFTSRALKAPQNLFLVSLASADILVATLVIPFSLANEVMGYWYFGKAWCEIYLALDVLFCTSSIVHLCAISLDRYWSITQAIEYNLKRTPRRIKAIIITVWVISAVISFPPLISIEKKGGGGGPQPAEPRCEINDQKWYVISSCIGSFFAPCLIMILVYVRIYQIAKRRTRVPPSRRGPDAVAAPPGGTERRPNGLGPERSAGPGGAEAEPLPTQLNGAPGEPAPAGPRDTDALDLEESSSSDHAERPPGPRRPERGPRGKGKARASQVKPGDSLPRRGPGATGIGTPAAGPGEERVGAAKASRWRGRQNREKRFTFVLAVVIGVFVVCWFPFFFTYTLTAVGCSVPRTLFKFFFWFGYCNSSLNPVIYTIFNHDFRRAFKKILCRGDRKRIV
Method in brief: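 Receptor expressed in Sf9 cells, in 50 mM Tris-HCl pH 7.4, 12.5 mM MgCl2, 2 mM EDTA; compounds incubated with 1 nM [3H]MK-912 for 60 min at 25 °C.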

[2] = biological target: T2, human recombinant adrenergic α2B receptor (Homo sapiens, UniProt P18089); assay: Radioligand binding, adrenergic α2B ([3H]Rauwolscine)
T2 construct: expressed in transfected cells; host or cells: CHO-K1
T2 sequence (P18089 1-450): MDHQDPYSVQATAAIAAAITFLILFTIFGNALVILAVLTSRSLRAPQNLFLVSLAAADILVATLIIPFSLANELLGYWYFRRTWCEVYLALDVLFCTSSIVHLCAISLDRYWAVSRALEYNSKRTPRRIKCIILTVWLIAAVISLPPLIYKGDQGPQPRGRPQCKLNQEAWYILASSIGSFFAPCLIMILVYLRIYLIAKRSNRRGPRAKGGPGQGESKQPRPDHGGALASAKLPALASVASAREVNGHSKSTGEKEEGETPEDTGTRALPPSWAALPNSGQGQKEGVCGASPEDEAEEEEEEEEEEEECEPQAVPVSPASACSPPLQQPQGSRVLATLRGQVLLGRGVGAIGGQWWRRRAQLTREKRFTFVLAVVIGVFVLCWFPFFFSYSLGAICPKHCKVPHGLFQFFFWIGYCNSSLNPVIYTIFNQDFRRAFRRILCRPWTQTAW
Method in brief: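 Assay used CHO-K1-expressed human α2B receptor in Tris-HCl pH 7.4 buffer with MgCl2, EDTA and BSA; 60 min incubation at 25 °C.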

[3] = biological target: T3, human recombinant adrenergic α1D receptor (Homo sapiens, UniProt P25100); assay: Radioligand binding, adrenergic α1D ([3H]Prazosin); conditions: [3H]Prazosin
T3 construct: expressed in transfected cells; host or cells: HEK-293
T3 sequence (P25100 1-572): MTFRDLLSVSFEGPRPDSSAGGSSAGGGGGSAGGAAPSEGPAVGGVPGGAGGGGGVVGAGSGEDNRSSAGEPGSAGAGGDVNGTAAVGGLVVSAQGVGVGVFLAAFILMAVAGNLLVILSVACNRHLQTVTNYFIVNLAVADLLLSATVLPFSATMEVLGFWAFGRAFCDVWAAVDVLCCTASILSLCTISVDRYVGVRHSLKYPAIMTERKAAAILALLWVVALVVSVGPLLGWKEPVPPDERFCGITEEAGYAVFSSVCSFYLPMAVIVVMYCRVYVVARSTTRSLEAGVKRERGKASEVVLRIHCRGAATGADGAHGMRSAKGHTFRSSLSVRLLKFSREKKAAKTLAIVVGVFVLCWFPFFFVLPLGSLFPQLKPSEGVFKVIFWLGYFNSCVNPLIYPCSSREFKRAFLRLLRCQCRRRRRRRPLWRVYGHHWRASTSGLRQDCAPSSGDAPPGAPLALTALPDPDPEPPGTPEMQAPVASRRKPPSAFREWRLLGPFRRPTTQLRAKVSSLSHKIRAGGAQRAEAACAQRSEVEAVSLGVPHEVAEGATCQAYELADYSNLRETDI
Description: Compounds were incubated with 0.6 nM [3H]Prazosin for 60 min at 25° C. Non-specific binding was estimated in the presence of 10 μM phentolamine. Receptor proteins were filtered and washed, the filters were then counted to determine [3H]Prazosin specifically bound. […] Biochemical assay results are presented as the percent inhibition of specific binding in Table B1.

[4] = biological target: T4, rat adrenergic α1B receptor (Rattus norvegicus, UniProt P15823); assay: Radioligand binding, adrenergic α1B ([3H]Prazosin); conditions: [3H]Prazosin
T4 construct: rat adrenergic α1B receptor obtained from Wistar Rat liver; from tissue; host or cells: Wistar rat liver
T4 sequence (P15823 1-515): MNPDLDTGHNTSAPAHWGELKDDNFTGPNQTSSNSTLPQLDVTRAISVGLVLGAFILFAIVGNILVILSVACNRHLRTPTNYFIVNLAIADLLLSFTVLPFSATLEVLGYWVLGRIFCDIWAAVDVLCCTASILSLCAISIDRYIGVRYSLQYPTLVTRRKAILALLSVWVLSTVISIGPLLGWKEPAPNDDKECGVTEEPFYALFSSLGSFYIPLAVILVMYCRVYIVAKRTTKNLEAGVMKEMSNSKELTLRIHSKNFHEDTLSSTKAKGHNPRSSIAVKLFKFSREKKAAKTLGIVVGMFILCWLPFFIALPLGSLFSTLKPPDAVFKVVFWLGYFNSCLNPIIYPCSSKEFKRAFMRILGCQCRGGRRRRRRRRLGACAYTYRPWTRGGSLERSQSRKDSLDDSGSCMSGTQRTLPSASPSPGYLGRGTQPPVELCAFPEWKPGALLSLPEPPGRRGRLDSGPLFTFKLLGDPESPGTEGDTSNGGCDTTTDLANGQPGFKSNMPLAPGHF
Method in brief: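 Rat α1B receptor from Wistar rat liver was incubated with 0.25 nM [3H]prazosin for 60 min at 25 °C in 50 mM Tris-HCl, pH 7.4, 0.5 mM EDTA. Non-specific binding was defined with 10 μM phentolamine. Bound radioligand was measured by filtration and counting, reported as percent inhibition of specific binding.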

[5] = compound at 0.1 μM, repeat assays, each datapoint shown, read-out: Percentage inhibition of ligand binding, Adrenergic α2A
[6] = compound at 0.1 μM, [3H]Rauwolscine, repeat assays, each datapoint shown, read-out: Percentage inhibition of ligand binding, Adrenergic α2B
[7] = compound at 0.1 μM, repeat assays, each datapoint shown, read-out: Percentage inhibition of ligand binding, Adrenergic α1D
[8] = compound at 0.1 μM, repeat assays, each datapoint shown, read-out: Percentage inhibition of ligand binding, Adrenergic α1B
[9] = compound at 0.1 μM, repeat assays, each datapoint shown, 0.1 µM
[10] = read-out: Percentage inhibition of ligand binding, Adrenergic α2A (0.1 μM), compound at 0.1 μM, repeat datapoints each shown
[11] = read-out: Percentage inhibition of ligand binding, Adrenergic α2B (0.1 μM), compound at 0.1 μM, [3H]Rauwolscine, repeat datapoints each shown
[12] = read-out: Percentage inhibition of ligand binding, Adrenergic α1D (0.1 μM), compound at 0.1 μM, repeat datapoints each shown
[13] = read-out: Percentage inhibition of ligand binding, Adrenergic α1B (0.1 μM), compound at 0.1 μM, repeat datapoints each shown
[14] = compound at 0.1 μM, repeat datapoints each shown, 0.1 µM

inhibition at 0.1 µM [1, 10]	inhibition at 0.1 µM [2, 11]	inhibition at 0.1 µM [3, 12]	inhibition at 0.1 µM [4, 13]	Structure (SMILES)	also measured
				Cc1ccc2c(c1)c1c(n2CCc2ccccn2)CCN(C)C1 [compound 84]	inhibition at 0.1 µM [1, 5]: 27%; inhibition at 0.1 µM [2, 6]: 84%; inhibition at 0.1 µM [3, 7]: 36%; inhibition at 0.1 µM [4, 8]: 69%
				Cc1ccc2c(c1)c1c(n2CCc2ccc(C(F)(F)F)nc2)CCN(C)C1 [compound 86]	inhibition at 0.1 µM [1, 5]: 27%; inhibition at 0.1 µM [2, 6]: 77%; inhibition at 0.1 µM [3, 7]: 62%; inhibition at 0.1 µM [4, 8]: 62%
				CN1CCc2c(c3cc(Cl)ccc3n2CCC(=O)OCC2CCCCC2)C1 [compound 87]	inhibition at 0.1 µM [1, 5]: 14%; inhibition at 0.1 µM [2, 6]: 66%; inhibition at 0.1 µM [3, 7]: 24%; inhibition at 0.1 µM [4, 8]: 5%
				CN1CCc2c(c3cc(Cl)ccc3n2CCC(=O)OC2CCCC2)C1 [compound 88]	inhibition at 0.1 µM [1, 5]: 2%; inhibition at 0.1 µM [2, 6]: 90%; inhibition at 0.1 µM [3, 7]: 36%; inhibition at 0.1 µM [4, 8]: 10%
				CCc1ccc(CCn2c3c(c4cc(C)ccc42)CN(C)CC3)cn1 [compound 89]	inhibition at 0.1 µM [1, 5]: 23%; inhibition at 0.03 µM ([2]; compound at 0.03 μM, [3H]Rauwolscine, repeat assays, each datapoint shown, read-out: Percentage inhibition of ligand binding, Adrenergic α2B): 25%; Percentage inhibition of ligand binding, Adrenergic α2B ([2]; compound at 0.1 μM, [3H]Rauwolscine, repeat assays, each datapoint shown, 0.1 µM): 57% and 79%; Ki ([2]; read-out: Ki α2B): 32 nM; inhibition at 0.1 µM [3, 7]: 68%; inhibition at 0.1 µM [4, 8]: 79%
				Cc1ccc2c(c1)c1c(n2CC(C)(O)c2ccc(F)cc2)CCN(C)C1 (stereo not drawn) [compound 90]	Percentage inhibition of ligand binding, Adrenergic α2A [1, 9]: 22%; inhibition at 0.1 µM [2, 6]: 91%; inhibition at 0.1 µM [3, 7]: 20%; Percentage inhibition of ligand binding, Adrenergic α1B [4, 9]: 57%
30%	77%	46%	77%	Cc1ccc2c(c1)c1c(n2CCc2cncc(Cl)c2)CCN(C)CC1 [compound 92]	
	87%	6%		Cc1ccc(C(C)(O)Cn2c3c(c4cc(Cl)ccc42)CN(C)CC3)cn1 (stereo not drawn) [compound 93]	Percentage inhibition of ligand binding, Adrenergic α2A (0.1 μM) [1, 14]: 21%; Percentage inhibition of ligand binding, Adrenergic α1B (0.1 μM) [4, 14]: 25%
11%	66%	10%	40%	Cc1ccc2c(c1)c1c(n2CC(=O)c2ccc(F)cc2)CCN(C)C1 [compound 94]	
29%	71%	3%	25%	C/C(=C\n1c2c(c3cc(C)ccc31)CCN(C)C2C)c1ccccc1F (stereo not drawn) [compound 96]	
29%	85%	34%	69%	C/C(=C\n1c2c(c3cc(C)ccc31)CCN(C)CC2)c1ccncc1 [compound 99]	
20%	72%	47%	73%	COc1ccc2c(c1)c1c(n2/C=C(/C)c2ccncc2)CCN(C)C1 [compound 100]	
21%	77%	21%	40%	Cc1ccc2c(c1)c1c(n2CC(C)(F)c2ccncc2)CCN(C)C1 (stereo not drawn) [compound 102]	
19%	80%	20%	49%	C/C(=C\n1c2c(c3cc(C)ccc31)CNCC2)c1ccncc1 [compound 103]	
14%	68%	36%	57%	Cc1ccc2c(c1)c1c(n2/C=C(\F)c2ccncc2)CCN(C)C1 [compound 105]	
6%	79%	45%	65%	C/C(=C\n1c2c(c3cc(C)ccc31)CCN(C)CC2)c1ccncn1 [compound 106]	
10%	85%	63%	56%	CNC(=O)c1cccc(/C(C)=C/n2c3c(c4cc(C)ccc42)CN(C)CC3)c1 [compound 107]	
20%	88%	21%	42%	C/C(=C\n1c2c(c3cc(C)ccc31)CN(C)CC2)c1ccnn1C [compound 108]	
25%	69%	21%	13%	C/C(=C\n1c2c(c3cc(C)ccc31)CN(C)CC2)c1cnn(C)c1 [compound 109]	
27%	62%	35%	5%	C/C(=C\n1c2c(c3cc(C)ccc31)CN(C)CC2)c1c(C)noc1C [compound 110]	

Structure (SMILES)	inhibition at 0.1 µM [1, 10]	inhibition at 0.1 µM [2, 11]	inhibition at 0.1 µM [3, 12]	inhibition at 0.1 µM [4, 13]	also measured
Cc1ccc(C#Cn2c3c(c4cc(Cl)ccc42)C2CCC(C3)N2C)cn1 (stereo not drawn) [compound 95]	9%	105%	29%	52%	
C/C(=C\n1c2c(c3cc(Cl)ccc31)C1CCC(C2)N1C)c1cccnc1 (stereo not drawn) [compound 97]	-12%	88%	-7%	3%	
